Assays:
Trypanosoma cruzi [1] = test: Antitrypanosomal activity against Trypanosoma cruzi trypomastigotes; type: functional, organism-based
[2] = biological target: T1, Dihydroorotate dehydrogenase (fumarate) (Leishmania major) (UniProt Q4QEW7); test: Inhibition of recombinant oligo-histidine-tagged Leishmania major DHODH expressed in Escherichia coli BL21(DE3) cells at 100 uM using DHO as substrate measured after 60 secs
T1 sequence (whole entry): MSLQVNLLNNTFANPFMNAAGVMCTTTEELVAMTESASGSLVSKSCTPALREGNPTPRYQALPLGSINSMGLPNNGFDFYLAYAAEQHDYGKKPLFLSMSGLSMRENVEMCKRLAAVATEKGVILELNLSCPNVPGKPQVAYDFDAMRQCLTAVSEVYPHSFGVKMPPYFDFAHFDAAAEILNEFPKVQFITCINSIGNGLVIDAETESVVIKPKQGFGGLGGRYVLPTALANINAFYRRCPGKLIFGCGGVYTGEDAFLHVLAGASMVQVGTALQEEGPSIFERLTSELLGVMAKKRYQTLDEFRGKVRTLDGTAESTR

[3] = biological target: T2, Dihydroorotate dehydrogenase (fumarate) (Leishmania major, UniProt Q4QEW7); test: Inhibition of recombinant oligo-histidine-tagged Leishmania major DHODH expressed in Escherichia coli BL21(DE3) cells using DHO as substrate measured after 60 secs
T2 sequence (Q4QEW7 whole entry): T1 sequence (whole entry)

[4] = biological target: Dihydroorotate dehydrogenase (quinone), mitochondrial (Homo sapiens) (UniProt Q02127); test: Inhibition of human DHODH at 100 uM
Dihydroorotate dehydrogenase (quinone), mitochondrial (Homo sapiens), sequence (Q02127 whole entry): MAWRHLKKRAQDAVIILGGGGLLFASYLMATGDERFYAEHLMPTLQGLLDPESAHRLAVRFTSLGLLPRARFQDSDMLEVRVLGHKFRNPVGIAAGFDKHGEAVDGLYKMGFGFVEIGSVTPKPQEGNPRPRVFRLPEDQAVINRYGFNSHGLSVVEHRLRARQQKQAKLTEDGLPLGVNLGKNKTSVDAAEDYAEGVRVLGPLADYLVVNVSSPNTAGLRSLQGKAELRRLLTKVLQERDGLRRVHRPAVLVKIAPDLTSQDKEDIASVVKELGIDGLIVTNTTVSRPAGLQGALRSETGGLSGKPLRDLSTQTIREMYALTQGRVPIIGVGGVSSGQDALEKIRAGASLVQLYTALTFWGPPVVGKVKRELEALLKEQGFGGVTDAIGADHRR

[5] = biological target: T1, Dihydroorotate dehydrogenase (fumarate) (Leishmania major); test: Binding affinity to Leishmania major DHODH assessed as change in melting temperature at 1000 uM by differential scanning fluorimetry-based ThermoFMN assay
[6] = biological target: T1, Dihydroorotate dehydrogenase (fumarate) (Leishmania major); test: Binding affinity to Leishmania major DHODH assessed as change in melting temperature at 100 uM by SYPRO orange dye-based differential scanning fluorimetry
[7] = biological target: T1, Dihydroorotate dehydrogenase (fumarate) (Leishmania major); test: Binding affinity to Leishmania major DHODH assessed as change in melting temperature at 500 uM by differential scanning fluorimetry-based ThermoFMN assay
[8] = biological target: T1, Dihydroorotate dehydrogenase (fumarate) (Leishmania major); test: Binding affinity to Leishmania major DHODH assessed as change in melting temperature at 100 uM by differential scanning fluorimetry-based ThermoFMN assay
[9] = biological target: T1, Dihydroorotate dehydrogenase (fumarate) (Leishmania major); test: Binding affinity to Leishmania major DHODH assessed as change in melting temperature at 1000 uM by SYPRO orange dye-based differential scanning fluorimetry
[10] = biological target: T1, Dihydroorotate dehydrogenase (fumarate) (Leishmania major); test: Binding affinity to Leishmania major DHODH assessed as change in melting temperature at 500 uM by SYPRO orange dye-based differential scanning fluorimetry
Trypanosoma cruzi [11] = test: Antitrypanosomal activity against Trypanosoma cruzi Tulahuen C2C4 trypomastigotes infected in rat skeletal myoblasts L-6 cells after 96 hrs by CPRG/Nonidet reagent based spectrophotometric method; type: functional, organism-based; conditions: Tulahuen C2C4, L6, 96 h
Leishmania donovani = test: Antileishmanial activity against Leishmania donovani MHOM/ET/67/L82 amastigotes after 72 hrs by Alamar Blue assay; type: functional, organism-based; conditions: MHOM/ET/67/L82, 72 h
[12] = system: Trypanosoma brucei rhodesiense; test: Antitrypanosomal activity against Trypanosoma brucei rhodesiense STIB 900 trypomastigotes after 72 hrs by Alamar Blue assay; type: functional, organism-based; conditions: STIB 900, 72 h
Leishmania amazonensis = test: Antileishmanial activity against Leishmania amazonensis MHOM/77BR/LTB0016 amastigotes infected in mouse peritoneal macrophages after 48 hrs by Giemsa staining-based assay; type: functional, organism-based; conditions: MHOM/77BR/LTB0016, 48 h
Leishmania braziliensis = test: Antileishmanial activity against Leishmania braziliensis H3227 MHOM/BR/94/H-3227 promastigotes after 72 hrs by MTT assay; type: functional, organism-based; conditions: H3227 MHOM/BR/94/H-3227, 72 h

O=C(/C=C/c1ccc(O)c(O)c1)O[C@H]1[C@H](O)C[C@](O)(C(=O)O)C[C@H]1OC(=O)/C=C/c1ccc(O)c(O)c1
IC50 (Trypanosoma cruzi [1]): 286 µM | inhibition [2]: 38% | IC50 ([3]; read-out: IC50): 73.2 µM | inhibition [4]: 10%

C=C(C)C(=O)O[C@@H]1C[C@](C)(O)[C@@H]2C(=O)C=C(C)[C@@H]2[C@H]2OC(=O)C(=C)[C@@H]21
IC50 ([3]; read-out: IC50): 662 µM

O=C(/C=C/c1ccc(O)c(O)c1)O[C@@H]1[C@H](O)C[C@@](O)(C(=O)O)C[C@H]1OC(=O)/C=C/c1ccc(O)c(O)c1
IC50 ([3]; read-out: IC50): 642 µM

O=C(/C=C/c1ccc(O)c(O)c1)O[C@@H]1C[C@@](O)(C(=O)O)C[C@@H](O)[C@@H]1O
IC50 ([3]; read-out: IC50): 1130 µM

C=C(C)C(=O)O[C@@H]1C[C@@](C)(O)[C@@H]2C(=O)C=C(C)[C@@H]2[C@H]2OC(=O)C(=C)[C@@H]21
IC50 ([3]; read-out: IC50): 168 µM

C=C1C(=O)O[C@@H]2[C@H]3C(C)=CC(=O)C3=C(C)C[C@@H](OC(=O)[C@]3(C)O[C@@H]3C)[C@@H]12
ΔTm [5]: -0.85 °C | ΔTm [6]: -0.38 °C | ΔTm [7]: -0.64 °C | ΔTm [8]: -0.26 °C | IC50 ([3]; read-out: IC50): 585 µM | ΔTm [9]: -1.01 °C | ΔTm [10]: -0.75 °C

C=C(C)C(=O)O[C@H]1C[C@@]2(C)OC(=CC2=O)/C(C)=C\[C@H]2OC(=O)C(=C)[C@H]12
IC50 (Trypanosoma cruzi [1]): 514 µM | IC50 ([3]; read-out: IC50): 278 µM

C=C1CC[C@H]2[C@@](C)(CCC[C@@]2(C)C(=O)O)[C@@H]1CCc1ccoc1
IC50 ([3]; read-out: IC50): 2620 µM

C=C1C(=O)O[C@@H]2/C=C(\C)CC/C=C(/C=O)[C@@H](O)[C@@H](OC(=O)/C(C)=C\C)[C@@H]12
ΔTm [5]: -1.48 °C | ΔTm [6]: -0.09 °C | ΔTm [7]: -1.07 °C | ΔTm [8]: -0.48 °C | IC50 ([3]; read-out: IC50): 644 µM | ΔTm [9]: -0.07 °C | ΔTm [10]: -0.17 °C

C=C(C)C(=O)O[C@H]1C[C@@]2(C)OC(=CC2=O)[C@@H](C)C[C@H]2OC(=O)C(=C)[C@H]12
ΔTm [5]: -0.27 °C | ΔTm [6]: -0.18 °C | ΔTm [7]: -0.22 °C | ΔTm [8]: -0.27 °C | IC50 ([3]; read-out: IC50): 145 µM | ΔTm [9]: -0.45 °C | ΔTm [10]: -0.27 °C

C=C1[C@@H]2CC[C@H]3[C@]4(C)CCC[C@@](C)(C(=O)O)[C@H]4CC[C@]3(C2)[C@H]1OC(=O)/C=C/c1ccccc1
IC50 ([3]; read-out: IC50): 1420 µM

CC[C@@H](C)[C@@]1(O)O[C@H]2C[C@@]3(C)OC(=CC3=O)/C(CO)=C\[C@H]3OC(=O)[C@@]1(C)[C@H]23
ΔTm [5]: -0.61 °C | ΔTm [6]: -0.13 °C | ΔTm [7]: -0.32 °C | ΔTm [8]: -0.15 °C | IC50 ([3]; read-out: IC50): 985 µM | IC50 ([3]; read-out: pIC50 (converted)): 794 µM | ΔTm [9]: -1.83 °C | ΔTm [10]: -0.96 °C

O=C(/C=C/c1ccc(O)c(O)c1)O[C@@H]1CC(O)(C(=O)O)C[C@@H](OC(=O)/C=C/c2ccc(O)c(O)c2)C1O (stereo not given in full)
IC50 ([3]; read-out: IC50): 1280 µM

C/C=C(/C)[C@@]1(O)O[C@H]2C[C@@]3(C)OC(=CC3=O)/C(C)=C\[C@H]3OC(=O)[C@@]1(C)[C@H]23
IC50 ([3]; read-out: IC50): 346 µM

CC[C@@H](C)[C@@]1(O)O[C@H]2C[C@@]3(C)OC(=CC3=O)/C(COC(C)=O)=C\[C@H]3OC(=O)[C@@]1(C)[C@H]23
ΔTm [5]: -0.76 °C | ΔTm [6]: -0.86 °C | ΔTm [7]: -0.65 °C | ΔTm [8]: -0.41 °C | IC50 ([3]; read-out: IC50): 1200 µM | ΔTm [9]: -1.39 °C | ΔTm [10]: -1.8 °C

COc1ccc(/C=C/C(=O)NC2CCCN2C(=N)N)cc1O (stereo not given)
IC50 ([3]; read-out: IC50): 610 µM

O=C(O)c1cc(=O)[nH]c(=O)[nH]1
ΔTm [5]: 6.12 °C | ΔTm [6]: 0.39 °C | ΔTm [7]: 4.32 °C | ΔTm [8]: 1.29 °C | ΔTm [9]: 1.62 °C | ΔTm [10]: 1.43 °C

O=c1cc(-c2ccc(O)cc2)oc2cc(O[C@@H]3O[C@H](CO)[C@@H](O)[C@H](O)[C@H]3O)cc(O)c12 [APIGETRIN]
inhibition [2]: 47% | IC50 (Trypanosoma cruzi [11]): 69.4 µM | IC50 ([3]; read-out: IC50): 105 µM | inhibition [4]: 10% | IC50 (Leishmania donovani): 4.86 µM | IC50 [12]: 52.5 µM

C=C1C(=O)O[C@@H]2/C=C(/C)C3=CC(=O)[C@@](C)(C[C@@H](OC(=O)/C(C)=C/C)[C@@H]12)O3 [ATRIPLICIOLIDTIGLATE]
ΔTm [5]: -1.21 °C | ΔTm [6]: -0.47 °C | ΔTm [7]: -0.85 °C | ΔTm [8]: -0.35 °C | IC50 ([3]; read-out: IC50): 872 µM | ΔTm [9]: -5.97 °C | ΔTm [10]: -2.52 °C

C=C1C(=O)O[C@@H]2/C=C(/CO)C3=CC(=O)[C@@](C)(C[C@@H](OC(=O)/C(C)=C/C)[C@@H]12)O3 [BUDLEIN A]
IC50 ([3]; read-out: IC50): 263 µM

O=c1c(O)c(-c2ccccc2)oc2cc(O)cc(O)c12 [GALANGIN]
IC50 (Trypanosoma cruzi [11]): 73.3 µM | IC50 ([3]; read-out: IC50): 481 µM | IC50 (Leishmania donovani): 5.55 µM | IC50 [12]: 61.1 µM

O=c1c(O)c(-c2ccc(O)cc2)oc2cc(O)cc(O)c12 [KAEMPFEROL]
IC50 (Trypanosoma cruzi [11]): 83.5 µM | IC50 ([3]; read-out: IC50): 389 µM | IC50 (Leishmania donovani): 10.1 µM | IC50 [12]: 32.2 µM

O=c1c(O)c(-c2cc(O)c(O)c(O)c2)oc2cc(O)cc(O)c12 [MYRICETIN]
inhibition [2]: 67% | IC50 (Trypanosoma cruzi [11]): 94.3 µM | inhibition [4]: 41% | IC50 (Leishmania donovani): 4.08 µM | IC50 [12]: 50 µM

O=C(O)/C=C/c1ccccc1O [O-COUMARIC ACID]
IC50 (Leishmania amazonensis): 13.8 µM | IC50 (Trypanosoma cruzi [11]): 183 µM | IC50 ([3]; read-out: IC50): 806 µM | IC50 (Leishmania donovani): 36.6 µM | IC50 [12]: 265 µM

O=C(O)c1ccc(O)c(O)c1 [PROTOCATECHUIC ACID]
IC50 ([3]; read-out: IC50): 922 µM | IC50 [12]: 112 µM

C[C@@H]1O[C@@H](OC[C@H]2O[C@@H](Oc3c(-c4ccc(O)c(O)c4)oc4cc(O)cc(O)c4c3=O)[C@H](O)[C@@H](O)[C@@H]2O)[C@H](O)[C@H](O)[C@H]1O [RUTIN]
IC50 (Leishmania amazonensis): 4.4 µM | IC50 (Trypanosoma cruzi [11]): 49.1 µM | IC50 ([3]; read-out: IC50): 1530 µM | IC50 (Leishmania donovani): 49.1 µM | IC50 [12]: 6.9 µM

COc1ccc(-c2oc3cc(O)c(OC)c(O)c3c(=O)c2OC)cc1 [SANTIN]
IC50 ([3]; read-out: IC50): 262 µM

O=c1c(O)c(-c2ccc(O[C@@H]3O[C@H](CO)[C@@H](O)[C@H](O)[C@H]3O)c(O)c2)oc2cc(O)cc(O)c12 [SPIRAEOSIDE]
inhibition [2]: 35% | IC50 ([3]; read-out: IC50): 163 µM | inhibition [4]: 16%

C=C1C(=O)O[C@@H]2C[C@H](C)[C@@]3(O)C[C@H](O)[C@@](C)(C[C@@H](OC(=O)C(C)C)[C@@H]12)O3 [TAGITININ A]
ΔTm [5]: -0.52 °C | IC50 (Leishmania braziliensis): 20.4 µM | ΔTm [6]: -0.07 °C | ΔTm [7]: -0.32 °C | ΔTm [8]: -0.26 °C | IC50 ([3]; read-out: IC50): 796 µM | ΔTm [9]: -0.19 °C | ΔTm [10]: -0.06 °C

C=C1C(=O)O[C@@H]2/C=C(/C)C(=O)/C=C/[C@](C)(O)C[C@@H](OC(=O)C(C)C)[C@@H]12 [TAGITININ C]
IC50 (Leishmania braziliensis): 9.2 µM | IC50 ([3]; read-out: IC50): 426 µM

COc1ccc(-c2oc3cc(O)cc(O)c3c(=O)c2O)cc1O [TAMARIXETIN]
inhibition [2]: 46% | IC50 (Trypanosoma cruzi [11]): 20.2 µM | IC50 ([3]; read-out: IC50): 93.7 µM | inhibition [4]: 29% | IC50 (Leishmania donovani): 53.1 µM | IC50 [12]: 46.8 µM

O=c1ccc2ccc(O)cc2o1 [UMBELLIFERONE]
IC50 (Trypanosoma cruzi [11]): 555 µM | IC50 ([3]; read-out: IC50): 467 µM | IC50 (Leishmania donovani): 172 µM | IC50 [12]: 319 µM

Reference: ChEMBL document CHEMBL4261582, “Natural products as inhibitors of Leishmania major dihydroorotate dehydrogenase” (Eur J Med Chem, 2018)
